Reference: patent publication US5427766A, “Radiolabeled steroids for use in radiochemical-guided surgery” (priority 1993, dated 1995)

Tests used:
Parameters in all cases: species or system athymic female NCR-Nu Mice
[1] = tested on: MCF-7(ER+) breast tumor xenografts; assay: In vivo localization (biodistribution) in athymic female nude mice bearing subcutaneous MCF-7 tumor xenografts
Protocol: (§1) In vivo localization of 11β-ethyl-17α-(Z)-[^125 I](iodovinyl)estra-3,17β-diol (5) and a control compound 16α-[^125 I]iodovinyl-3,17β-estradiol (commercially available from DuPont New England Nuclear, MA) was determined in athymic female NCR-Nu Mice (purchased from Simonsen Laboratories, Gilroy, Calif.) bearing subcutaneous MCF-7(ER+) breast tumor xenografts. Prior to injection of the compounds, the mice were each implanted with fragments of MCF-7 breast tumor (approximately 2 cubic millimeters) in the subcutis of the left flank. At approximately the same time, a 1.7 mg estradiol pellet (Innovative Research of America, Toledo, Ohio) was implanted in the scapular region. The tumors were allowed to grow until they reached between 50 and 200 mg by visual inspection (approximately four to five weeks) prior to injection of the test compounds. One day prior to injection of the test compounds, the estradiol pellet was removed.
(§2) The mice were each injected via tail vein with between 3 (1.1×10^5 Bq) and 6 μCi ([…]) ^125 I in approximately 50 μL of phosphate buffered saline. The mice were sacrificed at various time intervals. After exsanguination, the selected organ/tissue were excised, weighed and radioactivity measured in a gamma counter. The counts per minute (cpm) of 125I in each tissue was determined and expressed as cpm per gram of tissue per injected dose multiplied by 100 (percent injected dose/gram).

[2] = tested on: MCF-7 tumors located intraperitoneally; assay: In vivo localization (biodistribution) in athymic female nude mice bearing intraperitoneal MCF-7 tumors; conditions: for Percent Injected Dose/Gram, muscle: mouse, in vivo, ip
Protocol: as §1, §2
The procedure of Example 3 was followed except each mouse was inoculated intraperitoneally with MCF-7 breast carcinoma cell line (7.5×10^6 cell/50 μL) rather than implanted subcutaneously with MCF-7 breast tumor. One day prior to this procedure, a 1.7 mg estradiol pellet was implanted subcutaneously in the scapular region. The tumor cells were allowed to form solid tumor nodules for 4 to 6 weeks prior to injection of the test compounds.

[3] = tested on: MCF-7(ER+) breast tumor xenografts; assay: In vivo biolocalization with gamma detecting probe, tumor/background ratio, MCF-7 (ER+) tumor; conditions: mouse, in vivo
Protocol: (§3) In vivo biolocalization of 11β-ethyl-17α-(Z)-[^125 I](iodovinyl)estra-3,17β-diol (5) and a control compound 16α-[^125 I](iodovinyl)-3,17β-estradiol was determined in athymic female NCR-Nu Mice bearing subcutaneous MCF-7(ER+) breast tumor xenografts and MDA-MB-231 (ER-) breast tumor xenografts. The mice were at least 5 weeks old prior to injection into the right-hand flank with […] of MCF-7 breast carcinoma cells ([…]). One day prior to this procedure, the mice were implanted subcutaneously with a 1.7 mg estradiol pellet in the scapular region. Four to six weeks post-injection of the MCF-7 cells the estradiol pellet was removed and the mice inoculated in the left hind flank with 75 μL NDA-MB-231 breast tumor cells ([…]). Seven to ten days prior to injection of the test compounds, an estradiol pellet was again implanted in the scapular region. One to two days prior to injection of the test compounds, the estradiol pellet was removed, and 5 mice arbitrarily assigned to each test group.
(§4) The mice were each injected via tail vein with between 3 ([…]) and […] ([…]) 125 iodine in approximately […] of phosphate-buffered saline. At various time intervals after injection of the test compounds, each group of mice was anesthetized with methoxyflurane in order to measure the radioactivity over the ER+ and ER- tumors and the front leg for use as a background and the thoraxic area which served as a blood pool control using a gamma detecting probe (RIGS ^TM Model 1001 control unit, Neoprobe Corporation, Columbus, Ohio). Three 20 to 60 second counts were recorded at each area measured at each time point.
(§5) ^c Tu/Bkg = Mean(1-5) of (mean tumor countsn - mean foreleg
(§6) background countsn)/mean foreleg background

[4] = tested on: MDA-MB-231 (ER-) breast tumor xenografts; assay: In vivo biolocalization with gamma detecting probe, tumor/background ratio, MDA-MB-231 (ER-) tumor; conditions: mouse, in vivo
Protocol: as §3, §4, §5, §6

Compound: CC[C@H]1C[C@@]2(C)[C@@H](CC[C@@]2(O)/C=C\[125I])[C@@H]2CCc3cc(O)ccc3[C@@H]12 [Compound 5, 11β-ethyl-17α-(Z)-[^125 I](iodovinyl)estra-3,17β-diol]
- radioactivity in the uteri and tumors ([1]; 48 hours post-injection, uteri and tumors, subcutaneous MCF-7): still contain a significant amount of radioactivity
- Percent Injected Dose/Gram, fat ([1]; Fat, 48 hours, tail vein, subcutaneous MCF-7, mean, n = 5): 0.00 Percent Injected Dose/Gram
- Percent Injected Dose/Gram, muscle ([1]; 24 hours, tail vein, subcutaneous MCF-7, mean, n = 5): 0.00 Percent Injected Dose/Gram
- Percent Injected Dose/Gram, muscle ([1]; 48 hours, tail vein, subcutaneous MCF-7, mean, n = 5): 0.00 Percent Injected Dose/Gram
- binding affinity in vivo with retention of the targeted-site ([1]; subcutaneous MCF-7, conclusion in words): high binding affinity in vivo with retention of the targeted-site
- radioactivity in the uteri and tumors ([2]; 48 hours post-injection, uteri and tumors, intraperitoneal MCF-7): still contain a significant amount of radioactivity
- Percent Injected Dose/Gram, fat ([2]; Fat, 48 hours, tail vein, intraperitoneal MCF-7, mean, n = 5): 0.00 Percent Injected Dose/Gram
- binding affinity in vivo with retention of the targeted-site ([2]; intraperitoneal MCF-7, conclusion in words): high binding affinity in vivo with retention of the targeted-site
- Percent Injected Dose/Gram, muscle ([2]; 1440 min): 0.00 Percent Injected Dose/Gram
- Percent Injected Dose/Gram, muscle ([2]; 2880 min): 0.00 Percent Injected Dose/Gram
- Tumor/Background Ratio (Tu/Bkg) [3]: 4.70 ± 1.85
- tumor to background ratios (in words) [3]: good tumor to background ratios
- tumor to background ratios / localization at the tumor site (in words) [3]: maintained a high tumor to background ratios
- Tumor/Background Ratio (Tu/Bkg) ([3]; 120 min): 4.74 ± 2.04
- Tumor/Background Ratio (Tu/Bkg) ([3]; 360 min): 7.32 ± 0.60
- Tumor/Background Ratio (Tu/Bkg) ([3]; 1440 min): 3.53 ± 1.30
- Tumor/Background Ratio (Tu/Bkg) ([3]; 2880 min): 1.79 ± 1.23
- Tumor/Background Ratio (Tu/Bkg) [4]: 2.44 ± 1.83
- Tumor/Background Ratio (Tu/Bkg) ([4]; 120 min): 4.34 ± 1.37
- Tumor/Background Ratio (Tu/Bkg) ([4]; 360 min): 4.44 ± 2.62
- Tumor/Background Ratio (Tu/Bkg) ([4]; 1440 min): 0.87 ± 0.54
- Tumor/Background Ratio (Tu/Bkg) ([4]; 2880 min): 0.03 ± 0.34
